From US9062119B2, “Modified peptide toxins” (University of Debrecen, priority 2011, dated 2015)
Like-named read-outs stand apart in the source and are kept apart here. Where a SMILES comes first, the peptide text is derived from it.

How the values were obtained:
Kv1.3 [1] = experiment: Literature block of Kv1.3 by ADWX-1
Text: Han, S et al. have applied a structural approach [Han S et al, J Biol Chem 2008; 283(27):19058-19065.] to improve Kv1.3 selectivity of scorpion toxins. The authors started from the BmKTX scorpion toxin (Bhutus martensi) and designed a peptide with three point mutations based on binding studies to the Kv1.3 K channel at the molecular interaction level. Specifically, glycine (G) 11 was substituted with arginine (R), isoleucine (I) 28 with threonine (T) and aspartate (D) 33 with histidine (H) (BmKTX-Arg11Thr28His33 or ADWX-1 in short). […] 2009 231(1): 59-87.].

Kv1.3 [2] = details: found by Cahalan and Chandy 2009; read-out: IC50 for block of Kv1.3; cited from earlier work
Kv1.3 channels [3] = biological target: T1, Kv1.3 channels (Homo sapiens, UniProt P22001); experiment: Whole-cell patch-clamp block of Kv1.3 currents in activated human peripheral T lymphocytes; format: cell-based
T1 construct: endogenous in cells
T1 sequence (P22001 whole entry): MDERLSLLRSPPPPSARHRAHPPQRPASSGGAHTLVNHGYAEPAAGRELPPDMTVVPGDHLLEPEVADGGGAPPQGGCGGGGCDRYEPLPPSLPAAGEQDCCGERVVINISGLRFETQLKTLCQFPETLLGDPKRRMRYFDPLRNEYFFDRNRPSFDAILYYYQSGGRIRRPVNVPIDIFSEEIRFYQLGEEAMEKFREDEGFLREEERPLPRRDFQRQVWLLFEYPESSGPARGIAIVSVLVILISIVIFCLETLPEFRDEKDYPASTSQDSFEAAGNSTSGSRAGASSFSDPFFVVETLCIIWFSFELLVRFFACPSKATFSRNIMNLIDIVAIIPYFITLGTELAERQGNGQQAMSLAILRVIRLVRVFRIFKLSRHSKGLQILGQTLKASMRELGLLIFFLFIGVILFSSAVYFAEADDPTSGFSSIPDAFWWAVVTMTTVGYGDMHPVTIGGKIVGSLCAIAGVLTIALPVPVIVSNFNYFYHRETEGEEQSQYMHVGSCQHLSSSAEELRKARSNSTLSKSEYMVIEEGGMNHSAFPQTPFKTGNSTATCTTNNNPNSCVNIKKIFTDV
Procedure: (§1) Dose-response relationships of the synthetic wild-type toxin and the single and double mutants on Kv1.3 channels The blocking efficiency of the toxins was tested on activated lymphocytes. The remaining current fraction (RCF) was calculated as I/I0, where I and I0 represent the whole-cell current amplitude in the presence and absence of the toxin at the indicated concentrations, respectively. Data points are plotted with error bars representing SEM and were fitted with a Hill-equation to obtain the Kd of the binding.
(§2) Kv1.3 currents were measured in human peripheral T lymphocytes. Heparinized human peripheral venous blood was obtained from healthy volunteers. Mononuclear cells were separated by Ficoll-Hypaque density gradient centrifugation. Collected cells were washed twice with Ca^2+ and Mg^2+ free Hank's solution containing 25 mM HEPES buffer (pH 7.4). Cells were cultured in a 5% CO2 incubator at 37° C. in 24 well culture plates in RPMI-1640 supplements with 10% FCS (Sigma-Aldrich, Hungary) 100 μg/ml penicillin, 100 μg/ml streptomycin and 2 mM L-glutamine at 0.5×10^6/ml density for 3-4 days. The culture medium also contained 2.5 or 5 μg/ml of phytohemagglutinin A (PHA-P, Sigma-Aldrich Kft, Hungary) to increase K^+ channel expression [Bagdany M, et al. Mol Pharmacol 2005; 67:1034-1044].
(§3) Whole-cell currents were measured in voltage-clamped cells using Axopatch 200A and Multiclamp 700B amplifiers connected to a personal computer using Axon Digidata 1200 and 1322A data acquisition hardware, respectively (Molecular Devices Inc., Sunnyvale, Calif.). Series resistance compensation up to 70% was used to minimize voltage errors and achieve good voltage-clamp conditions. […] The measured osmolarity of the external solutions was between 302 and 308 mOsm. […] The measured osmolarity of the internal solutions was approximately 295 mOsm. Bath perfusion around the measured cell with different test solutions was achieved using a gravity-flow perfusion system. […]

Kv1.3 channels [4] = experiment: as above; format: cell-based
Procedure: as §1, §2, §3

Kv1.3 channels [5] = biological target: T1, Kv1.3 channels; details: natural toxin, Bagdany et al., 2005; cited from earlier work
hKv1.2 = biological target: T2, hKv1.2 (Homo sapiens, UniProt P16389); details: natural toxin, Bagdany et al., 2005, read-out: Kd for Kv1.2, cited from earlier work
T2 construct: expressed in transfected cells; host or cells: Cos-7 cells, co-transfected with a separate GFP plasmid
T2 sequence (P16389 whole entry): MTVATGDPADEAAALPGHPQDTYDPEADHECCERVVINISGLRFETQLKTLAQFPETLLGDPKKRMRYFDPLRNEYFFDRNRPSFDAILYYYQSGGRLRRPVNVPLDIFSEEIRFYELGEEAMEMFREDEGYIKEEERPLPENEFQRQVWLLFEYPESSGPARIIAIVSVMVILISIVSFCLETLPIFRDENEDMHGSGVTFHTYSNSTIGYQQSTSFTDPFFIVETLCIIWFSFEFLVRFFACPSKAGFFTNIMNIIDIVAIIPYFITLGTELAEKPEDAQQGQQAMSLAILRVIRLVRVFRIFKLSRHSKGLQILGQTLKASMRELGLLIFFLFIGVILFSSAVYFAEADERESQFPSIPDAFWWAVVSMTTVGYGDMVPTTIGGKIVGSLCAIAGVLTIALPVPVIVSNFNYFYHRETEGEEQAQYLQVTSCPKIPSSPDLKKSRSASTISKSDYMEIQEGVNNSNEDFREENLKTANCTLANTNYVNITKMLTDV

For BmKTX-Arg11Thr28His33 [ADWX-1], the “lower potency of Cahalan/Chandy value versus Han value” (Kv1.3 [1]) is given as 1000 fold and the IC50 (Kv1.3 [2]) is given as 1.2 nM.
`CSCC[C@@H]1NC(=O)[C@@H]2CSSC[C@H](NC(=O)[C@H](CCC(=O)O)NC(=O)[C@H](CCCCN)NC(=O)[C@H](CC(N)=O)NC(=O)[C@H](C)NC(=O)[C@H](C)NC(=O)[C@H](C)N)C(=O)N[C@@H]([C@@H](C)O)C(=O)NCC(=O)N3CCC[C@H]3C(=O)N[C@@H](CCC(N)=O)C(=O)N[C@@H](Cc3c[nH]cn3)C(=O)N[C@H]3CSSC[C@H](NC(=O)[C@H](CCCCN)NC(=O)[C@H](CCCNC(=N)N)NC(=O)[C@H](CC(N)=O)NC1=O)C(=O)N[C@@H](CCCCN)C(=O)N[C@H]1CSSC[C@H](NC(=O)[C@H](Cc4ccccc4)NC(=O)[C@H](CC(N)=O)NC(=O)[C@H]([C@@H](C)O)NC3=O)C(=O)N[C@@H](CCCNC(=N)N)C(=O)N[C@@H](CC(=O)O)C(=O)N[C@@H](C)C(=O)N[C@@H](CCCCN)C(=O)N[C@@H](CSSC[C@@H](C(=O)N[C@@H](CCCCN)C(=O)O)NC(=O)[C@H](CC(N)=O)NC(=O)[C@H]([C@@H](C)O)NC1=O)C(=O)N[C@@H]([C@@H](C)O)C(=O)N[C@@H](Cc1c[nH]cn1)C(=O)NCC(=O)N[C@@H](CCCCN)C(=O)N2` [(N-AAAN, K16D, N17A, F32T)] (HELM PEPTIDE1{A.A.A.N.K.E.C.T.G.P.Q.H.C.T.N.F.C.R.D.A.K.C.T.H.G.K.C.M.N.R.K.C.K.C.T.N.C.K}$PEPTIDE1,PEPTIDE1,7:R3-27:R3|PEPTIDE1,PEPTIDE1,13:R3-32:R3|PEPTIDE1,PEPTIDE1,17:R3-34:R3|PEPTIDE1,PEPTIDE1,22:R3-37:R3$$$V2.0; N-terminus and C-terminus assumed; bridges inferred) showed a Kd (Kv1.3 channels [3]) of 394 nM.
For Anuroctoxin [natural toxin], the “selectivity ratio SR=Kd[1.2]/Kd[1.3]” value (Kv1.3 channels [4]) is given as 9, the “selectivity for Kv1.3 over Kv1.2” value (Kv1.3 channels [4]; ratio of Kd,Kv1.2 and Kd,Kv1.3) is given as 9 fold and the Kd (Kv1.3 channels [5]) is given as 0.73 nM. The Kd (hKv1.2; listed as Anuroctoxin) was 6.14 nM and the Kd (hKv1.2) was 6.1 nM.
